Measurements from US20110028566A1, “COMPOSITIONS AND PRODUCTS CONTAINING CYCLOALIPHATIC DIOL ANTIMICROBIAL AGENTS AND METHODS OF USING THE COMPOSITIONS AND PRODUCTS” (EASTMAN CHEMICAL COMPANY, priority 2009, published 2011).
Several values for one entry are separate records, joined by “and”; a condition that tells them apart may be missing. Equal entries are not always repeated.

Key:
[1] = system: Candida albicans ATCC 10231; experiment: MIC determination and synergy testing (Kull synergy index), microplate; assay type: cell-based; design: QA/a: unit not given beside the values; settings: for QA, MIC of CHDM alone / QA/a: concentration of CHDM alone (QA, MIC): C. albicans; for QA/a: concentration of CHDM alone (QA, MIC): Table 46
Procedure: The test cultures are listed in Table 7 along with the incubation temperatures used for growth and minimum inhibitory concentration (MIC) testing. […] C. albicans was cultured in Sabouraud dextrose broth (SDB) for approximately 44-52 hours for preparation of inoculum. A. niger was cultured on Sabouraud dextrose agar (SDA) for 3-4 days until there was confluent growth and visible spore formation. Spores were harvested from the SDA plates by flooding the surface of the plate with 5-10 mL of phosphate-buffered saline (PBS) and gently spreading the liquid across the surface of the plate with a sterile T-shaped plastic spreader (Copan Diagnostics) until there was a well-mixed suspension of spores. The resulting spore suspension was collected using a serological pipette and stored at 2-8° C. until use.
Inoculum concentration was determined by dilution plating of the cultures or spore suspension. A serial dilution in PBS was made to 10^−8 for the bacterial cultures or 10^−5 for the fungal cultures. Fifty or 100 μL of the final dilution was spread on two Trypticase-soy agar (TSA) plates for bacteria or two SDA plates for fungi. After 24 to 48 hours plates were counted and the concentrations used in each experiment were calculated.
The antimicrobial agents tested for synergy along with the respective diluents and working stock solution concentrations are shown below. For determination of MIC ranges, individual antimicrobial agent stock solutions were added to sterile medium to yield the highest level test concentrations, and then serially diluted in the medium to prepare the range of test concentrations. For synergy testing individual test concentrations were prepared in sterile medium, and then blended to form the desired combinations.
MICs were determined using a high-throughput microplate method. Individual antimicrobial agents were added to TSB (pH 7.3) for bacterial testing or SDB (pH 5.6) for fungal testing at the highest concentration to be tested. A serial dilution series was prepared at a dilution ratio of 1:1.3333 such that a one log range was covered in nine dilutions. Two-hundred microliters of the diluted antimicrobial agents were dispensed into four wells each of a sterile, 96-well, flat-bottom microplate (Nalge Nunc International). Four additional wells of the highest concentration were dispensed to serve as uninoculated high-level controls. Eight additional wells containing only broth medium were also prepared, four to serve as negative controls and four as positive controls. Three wells of each antimicrobial agent dilution were inoculated with one of the test strains in Table 7. The final well of each antimicrobial agent dilution was left uninoculated to serve as a control (and means of compensating) for any absorbance/turbidity due to the test compounds.
Microplates were inoculated using the cultures or spore suspensions prepared as described above. The S. aureus cultures were used undiluted, while the E. coli and P. aeruginosa cultures were used either undiluted or after a 1:2 dilution in sterile TSB. The C. albicans cultures were used either undiluted or following a 2-fold concentration by centrifugation. One of two means of inoculation was used to deliver a final concentration of approximately 10^5 colony-forming units (CFU)/mL of C. albicans, 10^5 spores/mL of A. niger, or 10^6 CFU/mL of bacteria. The primary method used a stainless steel pin replicator (Nalge Nunc International) mounted on a hand-operated bench-top press (Schmidt Technology Corporation) fitted with a custom-built microplate holder to dispense one microliter of each inoculum from a “master” plate containing 50-100 μL of culture into the wells of the test plate. The pin replicator was sterilized before and between inoculations by immersing in ethanol and flaming. The alternative method of inoculation was by directly pipetting 20 μL of a 1:20 dilution of each culture or spore suspension into the appropriate wells of the test plates.

[2] = system: biodiesel-acclimated bioslime; experiment: 15-day biofouling control in B-100 biodiesel:Bushnell-Haas broth, visual turbidity; assay type: cell-based; design: key to Growth (visual turbidity rating): 0 = No Growth; 1 = Slight Growth; 2 = Moderate Growth; 3 = Heavy Growth; settings: 15 days, 22° C.; for Enhancement of the preservative (inhibitory) action of Killem biocide (in words): B-100 biodiesel, bioslime or trivalent bacterial-fungal inocula (Tables 54 & 55); for Growth (visual turbidity rating): biocide 0 mg/L, bioslime inoculum 50 uL
Procedure: Antimicrobial efficacy data (Table 54 & Table 55) were obtained for 1,4-CHDM with and without biocide in protection of B-100 biodiesel from microbial growth derived via either biodiesel-acclimated bioslime or trivalent bacterial-fungal inocula after 15-day exposure at 22° C. This testing was via a visual turbidity methodology. Neither micro-liter plates nor automatic plate reader could be used in this experiment due to the inherent biphasic nature of the system. B-100 biodiesel:Bushnell-Haas broth was used, which is a minimal salts medium specially designed for evaluating growth of microorganisms on hydrocarbons. Samples were evaluated visually (i.e., the more the turbidity, the more the growth, the less the turbidity, the less the growth, and no turbidity means no growth).

How did the “QA, MIC of CHDM alone” value ([1]; day 2 of incubation, plate 128B (MP series)) turn out when OCC1CCC(CO)CC1 (centres unmarked) [1,4-CHDM, 1,4-cyclohexanedimethanol] was run?
The value was 3.00 weight percent.

And the “QA, MIC of CHDM alone” value ([1]; day 2 of incubation, plates 116B, 240B, 252B (PE series))?
Its value is 5.85 weight percent and 6.67 weight percent and 3.56 weight percent.

And the “QA, MIC of CHDM alone” value ([1]; day 2 of incubation, plates 117B, 226B, 254B (CG series))?
The value was 5.63 weight percent and 5.00 weight percent and 3.56 weight percent.

What about the “QA, MIC of CHDM alone” value ([1]; day 3 of incubation, plate 128B (MP series)) of the same compound?
Its value is 4.00 weight percent.

What about the “QA, MIC of CHDM alone” value ([1]; day 3 of incubation, plates 116B, 240B, 252B (PE series)) of the same compound?
The value was 4.75 weight percent and 5.85 weight percent and 6.67 weight percent.

What about the “QA, MIC of CHDM alone” value ([1]; day 3 of incubation, plates 117B, 254B (CG series)) of the same compound?
The value was 4.75 weight percent and 6.67 weight percent.

What about the QA/a ([1]; CHDM alone (QA) or in combination with BA:DHA (a), plate 131B, day 3) of the same compound?
Its QA/a is 5.33.

What about the QA/a ([1]; CHDM alone (QA) or in combination with BA:DHA (a), plate 131B, day 4) of the same compound?
The QA/a was 5.33.

What about the QA/a ([1]; CHDM alone (QA) or in combination with BA:DHA (a), plate 239B, day 2) of the same compound?
The QA/a was 5.85.

What about the QA/a ([1]; CHDM alone (QA) or in combination with BA:DHA (a), plate 239B, day 3) of the same compound?
Its QA/a is 5.85.

What about the QA/a ([1]; CHDM alone (QA) or in combination with BA:DHA (a), plate 258B, day 2) of the same compound?
The QA/a was 5.00.

What about the QA/a ([1]; CHDM alone (QA) or in combination with BA:DHA (a), plate 258B, day 3) of the same compound?
Its QA/a is 6.67.

What about the QA/a ([1]; CHDM alone (QA) or in combination with DMDM hydantoin (a), plate 241B, day 2) of the same compound?
The QA/a was 5.85.

And the QA/a ([1]; CHDM alone (QA) or in combination with DMDM hydantoin (a), plate 241B, day 3)?
The QA/a was 5.85.

And the QA/a ([1]; CHDM alone (QA) or in combination with DMDM hydantoin (a), plate 244B, day 2)?
Its QA/a is 6.00.

What about the QA/a ([1]; CHDM alone (QA) or in combination with DMDM hydantoin (a), plate 244B, day 3) of the same compound?
Its QA/a is 8.00.

And the QA/a ([1]; CHDM alone (QA) or in combination with DMDM hydantoin (a), plate 263B, day 2)?
The QA/a was 8.00.

And the QA/a ([1]; CHDM alone (QA) or in combination with DMDM hydantoin (a), plate 263B, day 3)?
Its QA/a is 8.00.

What about the QA/a ([1]; CHDM alone (QA) or in combination with DMDM hydantoin (a), plate 264B, day 2) of the same compound?
Its QA/a is 6.67.

And the QA/a ([1]; CHDM alone (QA) or in combination with DMDM hydantoin (a), plate 264B, day 3)?
Its QA/a is 6.67.

And the QA/a ([1]; CHDM: MIC alone (QA) or conc. in combination with CP (a), plate 130B, day 2)?
The QA/a was 3.00.

What about the QA/a ([1]; CHDM: MIC alone (QA) or conc. in combination with CP (a), plate 130B, day 3) of the same compound?
The QA/a was 4.00.

And the QA/a ([1]; CHDM: MIC alone (QA) or conc. in combination with CP (a), plate 227B, day 2)?
Its QA/a is 5.63.

And the QA/a ([1]; CHDM: MIC alone (QA) or conc. in combination with CP (a), plate 227B, day 3)?
The QA/a was 5.63.

And the QA/a ([1]; CHDM: MIC alone (QA) or conc. in combination with CP (a), plate 256B, day 2)?
Its QA/a is 6.67.

And the QA/a ([1]; CHDM: MIC alone (QA) or conc. in combination with CP (a), plate 256B, day 3)?
The QA/a was 6.67.

What about the QA/a ([1]; CHDM: MIC alone (QA) or conc. in combination with MIT (a), plate 162B, day 3) of the same compound?
Its QA/a is 5.33.

What about the QA/a ([1]; CHDM: MIC alone (QA) or conc. in combination with MIT (a), plate 200B, day 2) of the same compound?
The QA/a was 6.23.

And the QA/a ([1]; CHDM: MIC alone (QA) or conc. in combination with MIT (a), plate 200B, day 3)?
Its QA/a is 6.23.

What about the “QA/a: concentration of CHDM alone (QA, MIC)” value ([1]; Day 2) of the same compound?
Its value is 4.00 weight percent and 3.38 weight percent.

And the “QA/a: concentration of CHDM alone (QA, MIC)” value ([1]; Day 3)?
The value was 4.50 weight percent.

What about the “Enhancement of the preservative (inhibitory) action of Killem biocide (in words)” value ([2]; Killem biocide 200 ppm, 1,4-CHDM 0.2-0.5 wt %) of the same compound?
Its value is “enhanced the preservative (inhibitory) action of the Killem biocide”.

And the “Enhancement of the preservative (inhibitory) action of Killem biocide (in words)” value ([2]; biocide 50 ppm or 100 ppm, or 1,4-CHDM 0.1 wt %)?
The value was “No enhancement”.

What about the “Growth (visual turbidity rating)” value ([2]; 1,4-CHDM 0.1% (v/v)) of the same compound?
Its value is 3.

And the “Growth (visual turbidity rating)” value ([2]; 1,4-CHDM 0.2% (v/v))?
Its value is 3.

And the “Growth (visual turbidity rating)” value ([2]; 1,4-CHDM 0.3% (v/v))?
Its value is 3.

What about the “Growth (visual turbidity rating)” value ([2]; 1,4-CHDM 0.4% (v/v)) of the same compound?
Its value is 3.

And the “Growth (visual turbidity rating)” value ([2]; 1,4-CHDM 0.5% (v/v))?
The value was 3.
